Assay results reported in ChEMBL document CHEMBL3045244, “Design and synthesis of novel piperazine unit condensed 2,6-diarylpiperidin-4-one derivatives as antituberculosis and antimicrobial agents” (2012).
Converted amounts (≈) assume the structure as drawn. The source made the active and inactive calls. The calls are words filed in the database; no cut-off is given here.

Legend:
Klebsiella pneumoniae [1] = assay: Antibacterial activity against Klebsiella pneumoniae ATCC 15499 after 24 hr by two-fold serial dilution method; assay type: functional; settings: ATCC 15499, 24 h
[2] = system: Mycobacterium tuberculosis; assay: Antituberculosis activity against Mycobacterium tuberculosis H37Rv ATCC 27294 after 21 days by BACTEC based radiometric respiratory technique; assay type: functional; settings: H37Rv ATCC 27294, 504 h
Aspergillus flavus [3] = assay: Antifungal activity against Aspergillus flavus ATCC 470 after 72 to 96 hr by two-fold serial dilution method; assay type: functional
Candida albicans [4] = assay: Antifungal activity against Candida albicans ATCC 3130 at 200 ug/ml after 72 to 96 hr by two-fold serial dilution method; assay type: functional, organism-based
Cryptococcus neoformans = assay: Antifungal activity against Cryptococcus neoformans ATCC 3315 after 72 to 96 hr by two-fold serial dilution method; assay type: functional
Escherichia coli = assay: Antibacterial activity against Escherichia coli ATCC 25840 after 24 hr by two-fold serial dilution method; assay type: functional; settings: ATCC 25840, 24 h
Salmonella typhi [5] = assay: Antibacterial activity against Salmonella enterica subsp. enterica serovar Typhi ATCC 24930 after 24 hr by two-fold serial dilution method; assay type: functional; settings: ATCC 24930, 24 h
Aspergillus niger [6] = assay: Antifungal activity against Aspergillus niger ATCC 591 after 72 to 96 hr by two-fold serial dilution method; assay type: functional
Bacillus subtilis [7] = assay: Antibacterial activity against Bacillus subtilis ATCC 461 after 24 hr by two-fold serial dilution method; assay type: functional; settings: ATCC 461, 24 h
Staphylococcus aureus [8] = assay: Antibacterial activity against Staphylococcus aureus ATCC 25833 after 24 hr by two-fold serial dilution method; assay type: functional; settings: ATCC 25833, 24 h
Rhizopus = assay: Antifungal activity against Rhizopus sp. ATCC 2920 after 72 to 96 hr by two-fold serial dilution method; assay type: functional
Candida albicans [9] = assay: Antifungal activity against Candida albicans ATCC 3130 after 72 to 96 hr by two-fold serial dilution method; assay type: functional
Salmonella typhi [10] = assay: Antibacterial activity against Salmonella enterica subsp. enterica serovar Typhi ATCC 24930 at 200 ug/ml after 24 hr by two-fold serial dilution method; assay type: functional, organism-based
[11] = system: Mycobacterium tuberculosis; assay: Ratio of rifampicin MIC to compound MIC for Mycobacterium tuberculosis H37Rv ATCC 27294; assay type: functional
[12] = system: Mycobacterium tuberculosis; assay: Ratio of isoniazid MIC to compound MIC for Mycobacterium tuberculosis H37Rv ATCC 27294; assay type: functional
Bacillus subtilis [13] = assay: Antibacterial activity against Bacillus subtilis ATCC 461 at 200 ug/ml after 24 hr by two-fold serial dilution method; assay type: functional, organism-based
Staphylococcus aureus [14] = assay: Antibacterial activity against Staphylococcus aureus ATCC 25833 at 200 ug/ml after 24 hr by two-fold serial dilution method; assay type: functional, organism-based
Aspergillus flavus [15] = assay: Antifungal activity against Aspergillus flavus ATCC 470 at 200 ug/ml after 72 to 96 hr by two-fold serial dilution method; assay type: functional, organism-based
Klebsiella pneumoniae [16] = assay: Antibacterial activity against Klebsiella pneumoniae ATCC 15499 at 200 ug/ml after 24 hr by two-fold serial dilution method; assay type: functional, organism-based
Aspergillus niger [17] = assay: Antifungal activity against Aspergillus niger ATCC 591 at 200 ug/ml after 72 to 96 hr by two-fold serial dilution method; assay type: functional, organism-based

Compound | MIC (Klebsiella pneumoniae [1]) | MIC [2] | MIC (Aspergillus flavus [3]) | MIC (Cryptococcus neoformans) | MIC (Escherichia coli) | MIC (Salmonella typhi [5]) | MIC (Aspergillus niger [6]) | MIC (Bacillus subtilis [7]) | MIC (Staphylococcus aureus [8]) | MIC (Rhizopus) | MIC (Candida albicans [9]) | Ratio [11] | Ratio [12] | further results
CCOC(=O)N1CCN(CC(=O)N2C(c3ccccc3)CC(=O)C(C)C2c2ccccc2)CC1 (centres undefined) | 200 mg/L (≈ 431 µM) | > 256 mg/L | 200 mg/L (≈ 431 µM) | 50 mg/L (≈ 108 µM) | 50 mg/L (≈ 108 µM) | 100 mg/L (≈ 216 µM) | 100 mg/L (≈ 216 µM) | 50 mg/L (≈ 108 µM) | 100 mg/L (≈ 216 µM) | 200 mg/L (≈ 431 µM) | – | – | – | Activity (Candida albicans [4]): inactive
CCOC(=O)N1CCN(CC(=O)N2C(c3ccc(F)cc3)CC(=O)C(C)C2c2ccc(F)cc2)CC1 (centres undefined) | 12.5 mg/L (≈ 25 µM) | > 256 mg/L | 25 mg/L (≈ 50 µM) | 25 mg/L (≈ 50 µM) | 100 mg/L (≈ 200 µM) | 25 mg/L (≈ 50 µM) | 100 mg/L (≈ 200 µM) | 25 mg/L (≈ 50 µM) | 50 mg/L (≈ 100 µM) | 100 mg/L (≈ 200 µM) | 25 mg/L (≈ 50 µM) | – | – | –
CCOC(=O)N1CCN(CC(=O)N2C(c3cccc(F)c3)CC(=O)C(C)C2c2cccc(F)c2)CC1 (centres undefined) | 6.25 mg/L (≈ 12.5 µM) | > 256 mg/L | 100 mg/L (≈ 200 µM) | 12.5 mg/L (≈ 25 µM) | 6.25 mg/L (≈ 12.5 µM) | – | 25 mg/L (≈ 50 µM) | 100 mg/L (≈ 200 µM) | 50 mg/L (≈ 100 µM) | 50 mg/L (≈ 100 µM) | 6.25 mg/L (≈ 12.5 µM) | – | – | Activity (Salmonella typhi [10]): inactive
C[C@@H]1[C@H](O)[C@@H](C)/C=C/C=C/C=C/C=C/C=C/C=C/C=C/[C@H](O[C@@H]2O[C@H](C)[C@@H](O)[C@H](N)[C@@H]2O)C[C@@H]2O[C@](O)(C[C@@H](O)C[C@@H](O)[C@H](O)CC[C@@H](O)C[C@@H](O)CC(=O)O[C@H]1C)C[C@H](O)[C@H]2C(=O)O [AMPHOTERICIN B] | – | – | 50 mg/L (≈ 54.1 µM) | 25 mg/L (≈ 27.1 µM) | – | – | 50 mg/L (≈ 54.1 µM) | – | – | 25 mg/L (≈ 27.1 µM) | 25 mg/L (≈ 27.1 µM) | – | – | –
CC1(C)S[C@@H]2[C@H](NC(=O)Cc3ccccc3)C(=O)N2[C@H]1C(=O)O [PENICILLIN G] | 25 mg/L (≈ 74.8 µM) | – | – | – | 12.5 mg/L (≈ 37.4 µM) | 50 mg/L (≈ 150 µM) | – | 12.5 mg/L (≈ 37.4 µM) | 50 mg/L (≈ 150 µM) | – | – | – | – | –
CCOC(=O)N1CCN(CC(=O)N2C(c3ccc(OC)cc3)C(C)C(=O)C(C)C2c2ccc(OC)cc2)CC1 (centres undefined) | 100 mg/L (≈ 186 µM) | 16 mg/L (≈ 29.8 µM) | 100 mg/L (≈ 186 µM) | 200 mg/L (≈ 372 µM) | 200 mg/L (≈ 372 µM) | 100 mg/L (≈ 186 µM) | 100 mg/L (≈ 186 µM) | 50 mg/L (≈ 93 µM) | 100 mg/L (≈ 186 µM) | 50 mg/L (≈ 93 µM) | – | 200 | 1.56 | –
NNC(=O)c1ccncc1 [ISONIAZID] | – | 0.25 mg/L (≈ 1.82 µM) | – | – | – | – | – | – | – | – | – | – | – | –
CCOC(=O)N1CCN(CC(=O)N2C(c3ccccc3)C(C)C(=O)C(C)C2c2ccccc2)CC1 (centres undefined) | 50 mg/L (≈ 105 µM) | – | 100 mg/L (≈ 209 µM) | 25 mg/L (≈ 52.3 µM) | 25 mg/L (≈ 52.3 µM) | – | 100 mg/L (≈ 209 µM) | – | 200 mg/L (≈ 419 µM) | 100 mg/L (≈ 209 µM) | 100 mg/L (≈ 209 µM) | – | – | Activity (Bacillus subtilis [13]): inactive
CCOC(=O)N1CCN(CC(=O)N2C(c3ccc(C)cc3)CC(=O)C(C)C2c2ccc(C)cc2)CC1 (centres undefined) | 100 mg/L (≈ 203 µM) | > 256 mg/L | 200 mg/L (≈ 407 µM) | 50 mg/L (≈ 102 µM) | 50 mg/L (≈ 102 µM) | 200 mg/L (≈ 407 µM) | 50 mg/L (≈ 102 µM) | 100 mg/L (≈ 203 µM) | – | 200 mg/L (≈ 407 µM) | 200 mg/L (≈ 407 µM) | – | – | Activity (Staphylococcus aureus [14]): inactive
CCOC(=O)N1CCN(CC(=O)N2C(c3ccc(F)cc3)CC(=O)C(CC)C2c2ccc(F)cc2)CC1 (centres undefined) | 12.5 mg/L (≈ 24.3 µM) | 64 mg/L (≈ 125 µM) | 100 mg/L (≈ 195 µM) | 100 mg/L (≈ 195 µM) | 12.5 mg/L (≈ 24.3 µM) | 50 mg/L (≈ 97.4 µM) | 12.5 mg/L (≈ 24.3 µM) | 100 mg/L (≈ 195 µM) | 100 mg/L (≈ 195 µM) | 12.5 mg/L (≈ 24.3 µM) | 50 mg/L (≈ 97.4 µM) | 50 | 0.39 | –
CCOC(=O)N1CCN(CC(=O)N2C(c3ccc(Cl)cc3)C(C)C(=O)C(C)C2c2ccc(Cl)cc2)CC1 (centres undefined) | 50 mg/L (≈ 91.5 µM) | 16 mg/L (≈ 29.3 µM) | – | 200 mg/L (≈ 366 µM) | 100 mg/L (≈ 183 µM) | 25 mg/L (≈ 45.7 µM) | 50 mg/L (≈ 91.5 µM) | 50 mg/L (≈ 91.5 µM) | 50 mg/L (≈ 91.5 µM) | 25 mg/L (≈ 45.7 µM) | 100 mg/L (≈ 183 µM) | 200 | 1.56 | Activity (Aspergillus flavus [15]): inactive
CO[C@H]1/C=C/O[C@@]2(C)Oc3c(C)c(O)c4c(O)c(c(/C=N/N5CCN(C)CC5)c(O)c4c3C2=O)NC(=O)/C(C)=C\C=C\[C@H](C)[C@H](O)[C@@H](C)[C@@H](O)[C@@H](C)[C@H](OC(C)=O)[C@@H]1C [RIFAMPIN] | – | 32 mg/L (≈ 38.9 µM) | – | – | – | – | – | – | – | – | – | – | – | –
CCOC(=O)N1CCN(CC(=O)N2C(c3cccc(F)c3)C(C)C(=O)C(C)C2c2cccc(F)c2)CC1 (centres undefined) | 100 mg/L (≈ 195 µM) | 16 mg/L (≈ 31.2 µM) | – | 25 mg/L (≈ 48.7 µM) | 50 mg/L (≈ 97.4 µM) | – | 6.25 mg/L (≈ 12.2 µM) | 12.5 mg/L (≈ 24.3 µM) | 6.25 mg/L (≈ 12.2 µM) | 12.5 mg/L (≈ 24.3 µM) | 100 mg/L (≈ 195 µM) | 200 | 1.56 | Activity (Aspergillus flavus [3]): inactive; Activity (Salmonella typhi [10]): inactive
CCOC(=O)N1CCN(CC(=O)N2C(c3ccccc3)CC(=O)C(CC)C2c2ccccc2)CC1 (centres undefined) | – | 16 mg/L (≈ 33.5 µM) | 12.5 mg/L (≈ 26.2 µM) | 25 mg/L (≈ 52.3 µM) | 25 mg/L (≈ 52.3 µM) | 100 mg/L (≈ 209 µM) | – | 50 mg/L (≈ 105 µM) | 200 mg/L (≈ 419 µM) | 100 mg/L (≈ 209 µM) | 12.5 mg/L (≈ 26.2 µM) | 200 | 1.56 | Activity (Klebsiella pneumoniae [16]): inactive; Activity (Aspergillus niger [17]): inactive
